Data: paper PMC12833730, “Discovery of a First‐in‐Class Covalent Allosteric SHP1 Inhibitor with Immunotherapeutic Activity” (Angewandte Chemie (International Ed. in English), 2025)
“Also recorded” adds a separate entry of the source. Read-outs that look alike come from different tables or passages of the source.

Assays:
SHP1 = biological target: T1, SHP1 (Homo sapiens, UniProt P29350); assay: Thermal shift assay; assay type: binding; settings: vs DMSO control
T1 construct: SHP1, residues 245-543; made in house; host or cells: E. coli BL21(DE3)
Description: Building on the results from the SAR “by‐catalog” study, the following medicinal chemistry effort was prioritized on a systematic survey of the central phenyl scaffold, the sulfonamide linker, and the distal aryl moiety with the goal of a multiparameter optimization of potency and selectivity for SHP1 inhibition as well as drug‐like properties such as aqueous solubility and cell permeability. Additionally, given the crucial requirement for targeted covalent inhibitors to maintain tempered reactivity that enables selective target engagement and reduces cross‐reactivity to by‐standing nucleophiles in the cellular milieu,^[ [74], [75] ^] the medicinal chemistry campaign also sought to lower SHP1 covalent inhibitor reactivity with GSH and cytotoxicity. Careful assessment and evaluation of the SAR and other desirable drug‐like attributes of all synthesized molecules led to the identification of M029 (Figure 2a and Figure S2D, manuscript in preparation). […] To determine the selectivity of M029 for SHP1, we measured the IC50 value for M029‐mediated inhibition of a number of PTPs after a 60‐min preincubation. […]
The mixtures were centrifuged to remove the unfolded SHP1 proteins, and the supernatants were spiked with a control protein CDC14A, followed by loading into SDS‐PAGE gels to quantify the relative SHP1 level.

B16-F10 = assay: CCK8 cytotoxicity; assay type: cell-based; settings: up to 50 µM, 24 hours
Method: (§1) Figure S3. Cancerous cells (MC38, EO771, and B16-F10), non-cancerous cells (HEK293), and immune cells (Jurkat and Raw264.7) were treated with M029 at different doses for 24 hours, and the cell viability was determined by the CCK8 experiments using DMSO-treated cells as a control. […] Results were analyzed using GraphPad Prism 10.4.2. The figure is plotted as average ± standard error of the mean (SEM).
(§2) Cytotoxicity: HEK293, MC38, EO771, RAW264.7 cells in DMEM media [supplemented with 10% (v/v) fetal bovine serum and penicillin (100 units/ml)/streptomycin (100 μg/ml)] and Jurkat T cells in RPMI 1640 media [supplemented with 10% (v/v) fetal bovine serum and penicillin (50 units/ml)/streptomycin (50 μg/ml)] were dispensed in clear flat-bottom 96-well plates at the density of 5,000 cells per well and culture for 16 hours under 37 °C with 5% CO2. M029 of different concentrations or DMSO was added to each well, followed by additional incubation for 24 hours. All wells were then treated with 5 µL of CCK8 reagent (Abcam, #ab228554) followed by 4 hours of incubation. OD460 of the reaction mixture was detected using a Spectra MAX340 microplate spectrophotometer (Molecular Devices) and was used to determine the percent growth inhibition of M029 on each cell line. Data were fitted using Prism GraphPad 10.1.1.

EO771 = assay: CCK8 cytotoxicity; assay type: cell-based; settings: up to 50 µM, 24 hours
Method: as §1, §2

HEK293 = assay: CCK8 cytotoxicity; assay type: cell-based; settings: up to 50 µM, 24 hours
Method: as §1, §2

Jurkat T cells = assay: CCK8 cytotoxicity; assay type: cell-based; settings: up to 50 µM, 24 hours
Method: as §1, §2

MC38 = assay: CCK8 cytotoxicity; assay type: cell-based; settings: up to 50 µM, 24 hours
Method: as §1, §2

Raw264.7 cells = assay: CCK8 cytotoxicity; assay type: cell-based; settings: up to 50 µM, 24 hours
Method: as §1, §2

Pharmacokinetics in mice = assay type: in vivo, C57BL/6 mice; set-up: AUC: unit not given here
Method: Given M029's superb potency, selectivity, and target engagement, we considered that these desirable attributes make it a powerful chemical probe for interrogating the roles of SHP1 in biological processes and a promising lead for further development into an SHP1‐targeted therapy. […] To that end, we determined the pharmacokinetic (PK) properties of M029 in mice by administrating the compound via intraperitoneal (IP), intravenous (IV), and oral (PO) routes at a concentration of 25 mg/kg (Figure S4). […] Importantly, M029 is orally bioavailable. […] Moreover, even with the 25 mg/kg oral gavage, the plasma concentration of M029 was maintained several‐fold higher than its biochemical IC50 and two‐fold above its cellular EC50 for Jurkat T cell activation for at least 1 h duration (Figure S4). These PK properties ensure that adequate M029 compound exposure can be achieved to assess the effect of SHP1 inhibition in vivo.
Figure S4. Pharmacokinetic parameters of M029. Curves of (A) PO, (B) IP, (C) IV dosage of M029 at 25 mg/kg in WT C57BL/6 mice. Results were analyzed using GraphPad Prism 10.4.2. The figure is plotted as average ± standard error of the mean (SEM).
All the in vivo studies were performed under an animal protocol (1511001324) approved by the Institutional Animal Care & Use Committee of Purdue University, in accordance with the recommendations in the Guide for the Care and Use of Laboratory Animals of the National Institutes of Health. For PK study, C57BL6 female mice (25-30g body weight) were injected intraperitoneally, orally, or intravenously with 25 mg/kg M029 dissolved in 0.4 ml saline. Blood samples were collected through the tail vein at the indicated time points after injection. Isoflurane was used as an anesthetic. All blood samples were centrifuged at 1,500 g for 5 minutes, and plasma was separated and stored at –80°C until analysis by a validated method based on reversed-phase liquid chromatography coupled to mass-spectrometric detection (LC/MS) using a previously published procedure.^169 For the MC38 syngeneic tumor study, 12-week-old C57BL6 female mice were injected subcutaneously with […] MC38 cells in the right and left flanks for tumor growth. When tumors reached an average volume of 100 mm^3 mice were tumor size-matched and randomly assigned to different experimental groups for experiments. Four mice with eight tumors were used in each treatment group. Mice were injected orally with saline or 25 or 100 mg/kg M029 daily. Tumor sizes and animal weights were measured twice per week. Tumor volume (mm^3) = (length X width^2)/2. At the end of the experiments, mice were euthanized, and tumors were collected for analysis. Among eight tumors collected from each group, four homogenous samples and […] were prepared for Western blots and histology analysis.

MC38 colorectal tumors = assay: MC38 syngeneic tumor model; assay type: in vivo, C57BL/6 mice; settings: IP 15 mg/kg as printed in Figure S5

T1 sequence (P29350 245-543): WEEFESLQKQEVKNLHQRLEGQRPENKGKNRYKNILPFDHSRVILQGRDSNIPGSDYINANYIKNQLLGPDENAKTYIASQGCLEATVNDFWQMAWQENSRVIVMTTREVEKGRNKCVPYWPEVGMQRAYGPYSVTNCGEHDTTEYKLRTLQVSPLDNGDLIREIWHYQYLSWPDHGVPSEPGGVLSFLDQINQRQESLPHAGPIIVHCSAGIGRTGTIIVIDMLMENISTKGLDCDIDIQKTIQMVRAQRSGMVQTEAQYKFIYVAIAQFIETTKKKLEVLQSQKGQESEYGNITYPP

N#Cc1ccsc1NS(=O)(=O)c1ccc(NC(=O)CCl)cc1 [M029, 2-Chloro-N-(4-(N-(3-cyanothiophen-2-yl)sulfamoyl)phenyl)acetamide]
decrease in SHP1 protein melting temperature (SHP1): 1.8 °C
cytotoxicity, B16-F10 (B16-F10): No significant toxicity; also recorded: no significant cytotoxicity
cytotoxicity, EO771 (EO771): No significant toxicity; also recorded: no significant cytotoxicity
cytotoxicity, HEK293 (HEK293): No significant toxicity; also recorded: no significant cytotoxicity
cytotoxicity, Jurkat T cells (Jurkat T cells): No significant toxicity; also recorded: no significant cytotoxicity
cytotoxicity, MC38 (MC38): No significant toxicity; also recorded: no significant cytotoxicity
cytotoxicity, Raw264.7 (Raw264.7 cells): No significant toxicity; also recorded: no significant cytotoxicity
duration plasma concentration above biochemical IC50 and two-fold above cellular EC50 (Pharmacokinetics in mice; 25 mg/kg oral gavage): at least 1 h
AUC (Pharmacokinetics in mice; female, C57BL/6, mouse, plasma, 25 mg/kg oral, read-out: AUC, oral): 1410
Cmax (Pharmacokinetics in mice; female, C57BL/6, mouse, plasma, 25 mg/kg oral, read-out: Cmax, oral): 29.8 ± 7.1 µM
half-life (Pharmacokinetics in mice; female, C57BL/6, mouse, plasma, 25 mg/kg oral, read-out: t1/2, oral): 38.5 ± 7.6 min
AUC (Pharmacokinetics in mice; female, C57BL/6, mouse, plasma, ip, 25 mg/kg intraperitoneal, read-out: area under the curve (AUC), IP): 5090
half-life (Pharmacokinetics in mice; female, C57BL/6, mouse, plasma, ip, 25 mg/kg intraperitoneal, read-out: half-life (t1/2), IP): 36.3 ± 5.7 min
Cmax (Pharmacokinetics in mice; female, C57BL/6, mouse, plasma, ip, 25 mg/kg intraperitoneal, read-out: peak plasma concentration (Cmax), IP): 122 ± 28.2 µM
bioavailability (Pharmacokinetics in mice; female, C57BL/6, mouse, plasma, po, 25 mg/kg, read-out: oral bioavailability (%F)): 18%
MC38 tumor progression, IP dosage (MC38 colorectal tumors): delayed MC38 tumor progression
